Measurements as given in publication PMC7391726, “Fatty acid mimetic PBI-4547 restores metabolic homeostasis via GPR84 in mice with non-alcoholic fatty liver disease” (Scientific Reports, 2020).

Assays:
PPARδ = target: T1, PPARδ (Homo sapiens, UniProt Q03181); experiment: Cell-based GAL4 transactivation assay in HEK293 cells, PPARδ LBD; settings: compared to the control agonist GW0742
T1 construct: PPARδ (S139–Y440); expressed in transfected cells; host or cells: HEK293
T1 sequence (Q03181 139-441 limits assumed): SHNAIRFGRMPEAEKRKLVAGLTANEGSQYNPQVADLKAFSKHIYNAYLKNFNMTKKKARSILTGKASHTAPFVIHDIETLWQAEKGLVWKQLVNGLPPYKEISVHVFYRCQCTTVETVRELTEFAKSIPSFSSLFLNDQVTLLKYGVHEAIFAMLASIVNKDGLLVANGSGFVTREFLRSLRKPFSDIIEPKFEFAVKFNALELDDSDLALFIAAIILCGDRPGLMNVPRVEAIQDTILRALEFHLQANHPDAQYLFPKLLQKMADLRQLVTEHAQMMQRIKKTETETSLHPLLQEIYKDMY
Description: To determine the transcriptional activity of PBI-4547, a cell-based GAL4 transactivation assay in HEK293 cells transfected with either PPARα, PPARδ, or PPARγ LBD was used. […] However, PBI-4547 only partially activated PPARγ transcriptional activity, with a relative maximal efficacy of 38% of the control agonist rosiglitazone.
Generation of the Gαi2, Gαq, and GPR40/β-arrestin-2 BRET biosensors have been described previously. A plasmid encoding the human GPR120-L (long isoform) cDNA was obtained from R&D Systems. GPR120-S (short isoform) was generated by replacing the BglII-BsgI fragment from GPR120-L by a gBlock gene fragment (Integrated DNA Technologies, Coralville, IA) lacking the DNA sequence corresponding to the extra 16 amino acids found in the third intracellular loop of the long form. The GPR120-GFP10 construct was generated by inserting PCR-amplified GPR120-S (without its stop codon) in place of GPR40 in the GPR40-GFP10 plasmid. […]
HEK293 cells were co-transfected with pGL4.35[luc2P/9XGAL4UAS/Hygro] and GAL4-PPAR-Rluc plasmids, and after 24 h of incubation were treated with compounds for 24 h. Luciferase activity was determined with the Dual Glo luciferase assay (Promega). Firefly luminescence was normalized to the constitutively expressed Renilla luminescence, and results expressed as fold induction of vehicle control.

ob/ob mice = experiment: ob/ob leptin-deficient genetic mouse model of metabolic syndrome; assay type: in vivo
Description: We next sought to confirm our above findings obtained from the diet-induced model of obesity by using the ob/ob leptin-deficient genetic mouse model of metabolic syndrome. […] Additionally, the mRNA expression profiles of glucose- and FA-related genes in liver (Fig. S4D,E) and WAT (Fig. S5) also differed between pioglitazone- and PBI-4547-treated mice.

standard diet-fed mice = experiment: Standard diet-fed mice; assay type: in vivo, mouse
Description: The well-established high-fat diet (HFD) mouse model of obesity was used to study the impact of PBI-4547 on the onset and progression of NAFLD. A 14-week HFD regimen led to significant weight gain in both male and female mice. […] Moreover, PBI-4547 decreased serum triglycerides while enhancing adiponectin levels. […] Of note, the effects of PBI-4547 on bodyweight, food consumption, glucose tolerance, fasting blood glucose, insulin resistance and HOMA-β indices were absent in standard diet-fed mice (Table S1).
WT or Gpr84^−/− mice, as previously described, (aged 10–14 weeks at the beginning of the experiment) were either fed a standard diet (STD) or a high-fat diet (HFD) (Envigo #TD.06414) for 14 weeks. At this point, mice were administered either vehicle (water) or PBI-4547 (10 mg/kg) on a daily basis for 6 (WT study) or 8 (WT vs KO study) weeks by gastric gavage, and were sacrificed thereafter. Liver and WAT tissues were fixed in 10% formalin for histological analyses or flash frozen in liquid nitrogen for RT-PCR analyses. All animal studies were reviewed and approved by the animal care and use committee of the Institut National de la Recherche Scientifique – Armand-Frappier (Laval, QC, Canada) and the University of Ottawa’s Animal Care and Veterinary Services (Ottawa, ON, Canada). Protocols were approved and undertaken according to the Canadian Council on Animal Care guidelines.

For `CCCCCc1cc(CCCCC)cc(CC(=O)[O-])c1.[Na+]` [PBI-4547, 2-[3,5-dipentylphenyl]acetate sodium salt], which PPARδ transcriptional activity (PPARδ) is on record?
Its PPARδ transcriptional activity is “very weak”.

What about the bodyweight (ob/ob mice) of the same compound?
Its bodyweight is “significantly reduced”.

What about the “prevention of clinical manifestations of fatty liver disease (liver histology)” value (ob/ob mice) of the same compound?
The value was “more effective than pioglitazone”.

What about the “effects on bodyweight, food consumption, glucose tolerance, fasting blood glucose, insulin resistance and HOMA-β indices” value (standard diet-fed mice) of the same compound?
The value was “absent”.
